Data taken from PubChem BioAssay (NCI).
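Assay format: 96-well plates, 48-hour exposure. GI50 marks 50% less growth. TGI is the concentration that stops growth completely.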

Experiments:
Assay in all cases: NCI tumour cell line growth inhibition, 48 h
[1] = system: A498 renal
[2] = system: CCRF-CEM leukemia
[3] = system: DU-145 prostate
[4] = system: HCC-2998 colon
[5] = system: KM12 colon
[6] = system: LOX IMVI melanoma
[7] = system: NCI/ADR-RES ovarian
[8] = system: RPMI-8226 leukemia
[9] = system: SF-539 CNS
[10] = system: SK-MEL-5 melanoma

SMILES | TGI [1] [µM] | TGI [2] [µM] | TGI [3] [µM] | TGI [4] [µM] | TGI [5] [µM] | TGI [6] [µM] | TGI [7] [µM] | TGI [8] [µM] | TGI [9] [µM] | TGI [10] [µM] | GI50 [1] [µM] | GI50 [2] [µM] | GI50 [3] [µM] | GI50 [4] [µM] | GI50 [5] [µM] | GI50 [6] [µM] | GI50 [7] [µM] | GI50 [8] [µM] | GI50 [9] [µM] | GI50 [10] [µM]
O=S1(=O)CCN(c2ccccc2CC(c2c[nH]c3ccccc23)c2c[nH]c3ccccc23)CC1 | 39.9 | 11.1 | 35.4 | 8.09 | 13.5 | 11.6 | 38.7 | 5.01 | 32 | 19.8 |  |  |  |  |  |  |  |  |  | 
CC12CC(c3ccccc3O1)C(C(=O)Nc1cccc(F)c1)C(=O)N2 (stereo not given) | > 100 | > 100 | > 100 | > 100 | > 100 | > 100 | 81.9 | > 100 | > 100 | 54.8 |  |  |  |  |  |  |  |  |  | 
CC(C)(C)c1c(C(C)(C)C)c(=O)c1=O | > 100 | > 100 | > 100 | > 100 | > 100 | > 100 | > 100 | > 100 | > 100 | > 100 |  |  |  |  |  |  |  |  |  | 
O=C1C=C(N2CCN(c3ccccn3)CC2)C(=O)c2c(O)ccc(O)c21 | 52.2 | > 36.8 | > 55.5 | 43.1 | > 46.4 | > 45 | 11.5 | 41.7 | 22.3 | 4.5 |  |  |  |  |  |  |  |  |  | 
O=C1CC2(CCNCC2)C(=O)N1N1CCOCC1 | > 100 | > 100 | > 100 | > 100 | > 100 | > 100 | > 100 | > 100 | > 100 | > 100 |  |  |  |  |  |  |  |  |  | 
COc1cc(-n2cc(-c3cc(O)c(C/C=C(\C)CCC=C(C)C)c(O)c3)nn2)cc2c1O[C@]1(C)CC[C@@H](O)C(C)(C)[C@H]1C2 | 32.8 | > 43.3 | 26.3 | 19 | 31.9 | 1.09 | 68.6 | 0.475 | 1.76 | 5.77 | 0.298 | 0.194 | 2.3 | 2.45 | 2.47 | 0.186 | 3.51 | 0.0324 | 0.0664 | 1.33
C/C(=N\Nc1ccccc1)C(CN(C)C)C(c1ccccc1)c1c(O)c2ccccc2oc1=O (stereo not given) | > 100 | > 100 | > 100 | > 100 | > 100 | > 100 | > 100 | > 100 | > 100 | > 100 |  |  |  |  |  |  |  |  |  | 
NC(=O)C1=CC2C3C=CC2(O)C(=O)OC3O1 (stereo not given) | 59.3 | 9.8 | 14.2 | 26.7 | 11.4 | 5.18 | 7.22 | > 29.5 | 15.7 | 6.32 |  |  |  |  |  |  |  |  |  | 
CCCNC(=O)CCC(C)[C@H]1CCC2C3C(C[C@H](OC(C)=O)[C@@]21C)[C@@]1(C)CCC2(C[C@H]1C[C@H]3OC(C)=O)OOC1(CCCCC1)OO2 (stereo not given in full) | 50.1 | 4.95 | 3.36 | > 43.3 | 3.56 | 3.52 | 8.45 | 4.68 | 16 | 5.71 |  |  |  |  |  |  |  |  |  | 
COc1ccc(C(=O)c2ccc(-n3cc(/C=C/[N+](=O)[O-])c4ccccc43)cc2)cc1 | 44.9 | > 20.2 | > 51.2 | 48.9 | 55.2 | 19.2 | 56.5 | > 100 | 31.3 | > 61.9 |  |  |  |  |  |  |  |  |  | 
O=C1OI(C#Cc2ccccc2)c2ccccc21 | 16.4 | 4.01 | 23.4 | 21.4 | 9.31 | > 100 | > 100 | 4.24 | 5.58 | 6.77 |  |  |  |  |  |  |  |  |  | 
NC(=S)N/N=C\CC(O)(C(F)(F)F)C(F)(F)F | > 10 | > 10 | > 10 | > 10 | > 10 | > 10 | > 10 | > 10 | > 10 | > 10 |  |  |  |  |  |  |  |  |  | 
O=C1/C(=C\c2cccc(Oc3ccccc3)c2)SC(c2ccccc2)N1c1cccc([N+](=O)[O-])c1 (stereo not given) | > 100 | 81.2 | > 100 | > 100 | > 100 | > 100 | > 100 | > 100 | 63.3 | > 100 |  |  |  |  |  |  |  |  |  | 
O=C1CSC2(CC(/C=C/c3ccccc3Br)=NN2c2cccc(S(=O)(=O)O)c2)N1c1nc2ccccc2s1 (stereo not given) | > 100 | > 100 | > 100 | > 100 | > 100 | > 100 | > 100 | > 100 | > 100 | > 100 |  |  |  |  |  |  |  |  |  | 
